Experimental data: patent publication US20240174671A1, “New 2,3-Dihydro-1H-pyrrolo[3,2-b]pyridine Derivatives as Sigma Ligands” (ACONDICIONAMIENTO TARRASENSE, priority 2021, published 2024)
Like-named read-outs stand apart in the source and are kept apart here.

Key:
sigma-2 site = sigma-2 site (Homo sapiens, UniProt Q5BJF2); settings: background statement; cited from earlier work
[1] = tested on: mechanical hypersensitivity in SNI mice; settings: SNI mice model of neuropathic pain; cited from earlier work
human σ1 receptor = target: T1, human σ1 receptor (Homo sapiens, UniProt Q99720); assay: Human σ1 receptor radioligand assay ([3H](+)-pentazocine); type: binding
T1 construct: expressed in transfected cells; host or cells: HEK-293
In short: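 Binding used [3H](+)-pentazocine, 120 min at 37° C, with non-specific binding defined by 10 μM haloperidol. Bound radioligand was collected by filtration, washed with ice-cold 10 mM Tris-HCl pH 7.4 and counted by scintillation.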

human σ2/TMEM97 receptor = target: T2, human σ2/TMEM97 receptor (Homo sapiens, UniProt Q5BJF2); assay: Binding assay to human σ2/TMEM97 receptor ([3H]-DTG); settings: transfected HEK-293 membranes, 10 nM [3H]-DTG, 25° C., 120 minutes; read-out: Binding σ-[…] (binding to σ2-receptor expressed as Ki)
T2 construct: expressed in transfected cells; host or cells: HEK-293
In short: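 Membranes from transfected HEK-293 cells incubated with 10 nM [3H]-DTG in 50 mM Tris-HCl pH 8.0, 120 min at 25 °C; non-specific binding defined with 10 μM haloperidol. Bound radioactivity counted after filtration; compounds tested as % inhibition at 1 or 10 μM or at five concentrations for Ki.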

[2] = transfected HEK-293 membranes, 5 nM [3H](+)-pentazocine, 37° C., 120 minutes, read-out: Binding σ-[…] (binding to σ1-receptor expressed as Ki)

T2 sequence (Q5BJF2 whole entry): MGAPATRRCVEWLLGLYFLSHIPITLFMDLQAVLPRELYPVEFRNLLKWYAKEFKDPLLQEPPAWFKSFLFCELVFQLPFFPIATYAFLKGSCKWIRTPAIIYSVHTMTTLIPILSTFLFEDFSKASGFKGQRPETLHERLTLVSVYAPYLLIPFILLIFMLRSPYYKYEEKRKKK
T1 sequence (Q99720 whole entry): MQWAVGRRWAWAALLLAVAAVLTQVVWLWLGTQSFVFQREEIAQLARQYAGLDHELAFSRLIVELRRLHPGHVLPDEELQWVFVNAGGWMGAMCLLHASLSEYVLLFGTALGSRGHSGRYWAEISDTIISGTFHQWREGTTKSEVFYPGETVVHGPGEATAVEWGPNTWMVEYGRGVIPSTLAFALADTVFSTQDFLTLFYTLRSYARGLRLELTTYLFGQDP
sigma-2 site, sequence (Q5BJF2 whole entry): as the sequence (Q5BJF2 whole entry) above

| Compound | affinity for the sigma-2 site (sigma-2 site) | mechanical hypersensitivity [1] | Ki (human σ1 receptor; [2]) [nM] | Ki (human σ2/TMEM97 receptor) [nM] | Ki (human σ1 receptor) [nM] |
| --- | --- | --- | --- | --- | --- |
| (+)-SKF-10047 | micromolar affinity |  |  |  |  |
| UKH-1114 |  | relieved mechanical hypersensitivity |  |  |  |
| CC1(C)CN(C(=O)N2CCC3(CCN(Cc4ccc(C#N)c(F)c4)CC3)C2)c2cccnc21 [Example 142, 4-((2-(3,3-dimethyl-2,3-dihydro-1H-pyrrolo[3,2-b]pyridine-1-carbonyl)-2,8-diazaspiro[4.5]decan-8-yl)methyl)-2-fluorobenzonitrile] |  |  | < 100 | < 100 |  |
| Cc1ccc2c(n1)C(C)(C)CN2C(=O)N1CCC2(CCN(Cc3ccccc3)C2)CC1 [Example 38, (2-benzyl-2,8-diazaspiro[4.5]decan-8-yl)(3,3,5-trimethyl-2,3-dihydro-1H-pyrrolo[3,2-b]pyridin-1-yl)methanone] |  |  | 100 to 500 | < 100 |  |
| Cc1ccc2c(n1)C(C)(C)CN2C(=O)[C@H]1CC[C@H](N(C)Cc2cc(F)ccc2F)CC1 [Example 173, ((1r,4r)-4-((2,5-difluorobenzyl)(methyl)amino)cyclohexyl)(3,3,5-trimethyl-2,3-dihydro-1H-pyrrolo[3,2-b]pyridin-1-yl)methanone] |  |  | < 100 | < 100 |  |
| O=C(N1CC[C@H](NCCc2ccccc2)C1)N1CCc2ncccc21 [Example 97, (S)-(2,3-dihydro-1H-pyrrolo[3,2-b]pyridin-1-yl)(3-(phenethylamino)pyrrolidin-1-yl)methanone] |  |  | 500 to 1000 | > 1000 |  |
| Cc1ccc2c(n1)C(C)(C)CN2C(=O)NCC(c1ccccc1F)N(C)C (centres unmarked) [Example 19, N-(2-(dimethylamino)-2-(2-fluorophenyl)ethyl)-3,3,5-trimethyl-2,3-dihydro-1H-pyrrolo[3,2-b]pyridine-1-carboxamide] |  |  | 100 to 500 | > 1000 |  |
| Cc1ccc2c(n1)C(C)(C)CN2C(=O)N1CCC2(CCN(Cc3ccc(F)c(C#N)c3)CC2)C1 [Example 107, 2-fluoro-5-((2-(3,3,5-trimethyl-2,3-dihydro-1H-pyrrolo[3,2-b]pyridine-1-carbonyl)-2,8-diazaspiro[4.5]decan-8-yl)methyl)benzonitrile] |  |  | > 1000 | < 100 |  |
| Cc1ccc2c(n1)C(C)(C)CN2C(=O)NC1CCN(Cc2cccc(C#N)c2)CC1 [Example 23, N-(1-(3-cyanobenzyl)piperidin-4-yl)-3,3,5-trimethyl-2,3-dihydro-1H-pyrrolo[3,2-b]pyridine-1-carboxamide] |  |  | 100 to 500 | > 1000 |  |
| Cc1ccc2c(n1)C(C)(C)CN2C(=O)N[C@@H]1CCN(Cc2ccccc2)C1 [Example 18, (R)—N-(1-benzylpyrrolidin-3-yl)-3,3,5-trimethyl-2,3-dihydro-1H-pyrrolo[3,2-b]pyridine-1-carboxamide] |  |  | 100 to 500 | 100 to 500 |  |
| COc1ccc2c(n1)C(C)(C)CN2C(=O)NC[C@@H](c1ccccc1)N(C)C [Example 17, (R)—N-(2-(dimethylamino)-2-phenylethyl)-5-methoxy-3,3-dimethyl-2,3-dihydro-1H-pyrrolo[3,2-b]pyridine-1-carboxamide] |  |  | < 100 | > 1000 |  |
| Cc1ccc2c(n1)C(C)(C)CN2C(=O)[C@H]1CC[C@H](N(C)Cc2cc(F)cc(F)c2)CC1 [Example 168, ((1r,4r)-4-((3,5-difluorobenzyl)(methyl)amino)cyclohexyl)(3,3,5-trimethyl-2,3-dihydro-1H-pyrrolo[3,2-b]pyridin-1-yl)methanone] |  |  | < 100 | < 100 |  |
| CC(C)CCN(C)[C@H]1CCCCN(C(=O)N2CCc3ncccc32)C1 [Example 122, (S)-(2,3-dihydro-1H-pyrrolo[3,2-b]pyridin-1-yl)(3-(isopentyl(methyl)amino)azepan-1-yl)methanone] |  |  | < 100 | 100 to 500 |  |
| Cc1ccc2c(n1)C(C)(C)CN2C(=O)N1CCC2(CCN(C(C)c3ccccc3)CC2)C1 (centres unmarked) [Example 96, (8-(1-phenylethyl)-2,8-diazaspiro[4.5]decan-2-yl)(3,3,5-trimethyl-2,3-dihydro-1H-pyrrolo[3,2-b]pyridin-1-yl)methanone] |  |  | 100 to 500 | 100 to 500 |  |
| Cc1ccc2c(n1)C(C)(C)CN2C(=O)N1CCC(N(C)Cc2cccnc2)CC1 [Example 74, (4-(methyl(pyridin-3-ylmethyl)amino)piperidin-1-yl)(3,3,5-trimethyl-2,3-dihydro-1H-pyrrolo[3,2-b]pyridin-1-yl)methanone] |  |  | > 1000 | 500 to 1000 |  |
| Cc1ccc2c(n1)C(C)(C)CN2C(=O)N1CCC(N(C)Cc2ccc(C#N)cc2)CC1 [Example 117, 4-((methyl(1-(3,3,5-trimethyl-2,3-dihydro-1H-pyrrolo[3,2-t]pyridine-1-carbonyl)piperidin-4-yl)amino)methyl)benzonitrile] |  |  | 100 to 500 | < 100 |  |
| CC(C)CCN[C@H]1CCCCN(C(=O)N2CCc3ncccc32)C1 [Example 121, (S)-(2,3-dihydro-1H-pyrrolo[3,2-b]pyridin-1-yl)(3-(isopentylamino)azepan-1-yl)methanone] |  |  | 100 to 500 | 100 to 500 |  |
| CC1(C)CN(C(=O)N2CCC3(CCN(Cc4ccc(C#N)cc4F)CC3)C2)c2cccnc21 [Example 157, 4-((2-(3,3-dimethyl-2,3-dihydro-1H-pyrrolo[3,2-b]pyridine-1-carbonyl)-2,8-diazaspiro[4.5]decan-8-yl)methyl)-3-fluorobenzonitrile] |  |  | 100 to 500 | < 100 |  |
| Cc1ccc2c(n1)C(C)(C)CN2C(=O)NC[C@H](Cc1ccccc1)N(C)C [Example 12, (S)—N-(2-(dimethylamino)-3-phenylpropyl)-3,3,5-trimethyl-2,3-dihydro-1H-pyrrolo[3,2-b]pyridine-1-carboxamide] |  |  |  | > 1000 | < 100 |
| Cc1ccc2c(n1)C(C)(C)CN2C(=O)NC1CCN(Cc2cccc(F)c2)CC1 [Example 26, N-(1-(3-fluorobenzyl)piperidin-4-yl)-3,3,5-trimethyl-2,3-dihydro-1H-pyrrolo[3,2-b]pyridine-1-carboxamide] |  |  | < 100 | > 1000 |  |
| CN(Cc1ccccc1F)[C@H]1CC[C@H](C(=O)N2CC(C)(C)c3ncccc32)CC1 [Example 175, (3,3-dimethyl-2,3-dihydro-1H-pyrrolo[3,2-b]pyridin-1-yl)((1r,4r)-4-((2-fluorobenzyl)(methyl)amino)cyclohexyl)methanone] |  |  | < 100 | < 100 |  |
| CN(Cc1cc(C#N)ccc1F)C1CCN(C(=O)N2CC(C)(C)c3ncccc32)CC1 [Example 77, 3-(((1-(3,3-dimethyl-2,3-dihydro-1H-pyrrolo[3,2-b]pyridine-1-carbonyl)piperidin-4-yl)(methyl)amino)methyl)-4-fluorobenzonitrile] |  |  | > 1000 | 100 to 500 |  |
| Cc1ccc2c(n1)C(C)(C)CN2C(=O)[C@H]1CC[C@H](N(C)Cc2ccc(C#N)c(F)c2)CC1 [Example 180, 2-fluoro-4-((methyl((1r,4r)-4-(3,3,5-trimethyl-2,3-dihydro-1H-pyrrolo[3,2-b]pyridine-1-carbonyl)cyclohexyl)amino)methyl)benzonitrile] |  |  | < 100 | < 100 |  |
| CN(Cc1ccccc1)[C@H]1CC[C@H](N(C)C(=O)N2CC(C)(C)c3ncccc32)CC1 [Example 78, N-((1r,4r)-4-(benzyl(methyl)amino)cyclohexyl)-N,3,3-trimethyl-2,3-dihydro-1H-pyrrolo[3,2-b]pyridine-1-carboxamide] |  |  | 500 to 1000 | < 100 |  |
| CN(Cc1ccc(C#N)c(F)c1)C1CCN(C(=O)N2CC(C)(C)c3ncccc32)CC1 [Example 87, 4-(((1-(3,3-dimethyl-2,3-dihydro-1H-pyrrolo[3,2-b]pyridine-1-carbonyl)piperidin-4-yl)(methyl)amino)methyl)-2-fluorobenzonitrile] |  |  | 500 to 1000 | < 100 |  |
| CN(Cc1ccccc1)[C@H]1CCCN(C(=O)N2CCc3ncccc32)C1 [Example 61, (S)-(3-(benzyl(methy)amino)piperidin-1-yl)(2,3-dihydro-1H-pyrrolo[3,2-b]pyridin-1-yl)methanone] |  |  | > 1000 | < 100 |  |
| Cc1ccc2c(n1)C(C)(C)CN2C(=O)NC1CCN(Cc2cccc(Cl)c2)CC1 [Example 55, N-(1-(3-chlorobenzyl)piperidin-4-yl)-3,3,5-trimethyl-2,3-dihydro-1H-pyrrolo[3,2-b]pyridine-1-carboxamide] |  |  | < 100 | 100 to 500 |  |
| Cc1ccc2c(n1)C(C)(C)CN2C(=O)N[C@H]1CCN(Cc2ccccc2)C1 [Example 21, (S)—N-(1-benzylpyrrolidin-3-yl)-3,3,5-trimethyl-2,3-dihydro-1H-pyrrolo[3,2-b]pyridine-1-carboxamide] |  |  | 100 to 500 | > 1000 |  |
| Cc1ccc2c(n1)C(C)(C)CN2C(=O)[C@H]1CC[C@H](N(C)CC2CCOCC2)CC1 [Example 185, ((1r,4r)-4-(methyl((tetrahydro-2H-pyran-4-yl)methyl)amino)cyclohexyl)(3,3,5-trimethyl-2,3-dihydro-1H-pyrrolo[3,2-b]pyridin-1-yl)methanone] |  |  | 100 to 500 | < 100 |  |
